Read-outs that look alike come from different tables or passages of the source.
Legend:
human GPR40 (hGPR40) [1] = molecular target: T1, human GPR40 (hGPR40) (Homo sapiens, UniProt O14842); assay: Determination of intracellular Ca2+ concentration (FLIPR), cell line TXGPR40; format: cell-based; conditions: for agonistic activity for GPR40 (in words): cells in which GPR40 has been transgenically expressed; for [Ca^2+]/GPR40 10 μM (ratio vs. LA): relative fluorescence intensity vs LA at 10 μM
T1 construct: expressed in transfected cells; doxycycline-inducible expression vector

human GPR120 (hGPR120) [2] = molecular target: T2, human GPR120 (hGPR120) (Homo sapiens, UniProt Q5NUL3); assay: Determination of intracellular Ca2+ concentration (FLIPR), cell line TXGPR120; format: cell-based; conditions: for agonistic activity for hGPR120 (in words): cells in which GPR120 has been transgenically expressed; for [Ca^2+]/GPR120 10 μM (ratio vs. LA): relative fluorescence intensity vs LA at 10 μM
T2 construct: expressed in transfected cells; doxycycline-inducible expression vector
T2 sequence (Q5NUL3 1-361): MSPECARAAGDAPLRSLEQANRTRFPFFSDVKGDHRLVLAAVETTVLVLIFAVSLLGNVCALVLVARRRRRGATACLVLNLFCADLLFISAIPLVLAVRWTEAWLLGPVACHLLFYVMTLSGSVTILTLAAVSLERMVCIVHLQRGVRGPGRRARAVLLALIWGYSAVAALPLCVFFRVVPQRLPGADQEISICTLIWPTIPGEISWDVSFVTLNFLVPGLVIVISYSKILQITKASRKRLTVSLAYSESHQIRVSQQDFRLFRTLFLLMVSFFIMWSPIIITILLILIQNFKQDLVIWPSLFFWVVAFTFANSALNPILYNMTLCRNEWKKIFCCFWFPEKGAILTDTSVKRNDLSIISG

human GPR120 (hGPR120) [3] = molecular target: T2, human GPR120 (hGPR120); assay: Determination of intracellular Ca2+ concentration (FLIPR), cell line GPR120/Flp-in; format: cell-based; conditions: for [Ca^2+]/GPR120/Flp-In 10 μM (ratio vs. LA): relative fluorescence intensity vs LA at 10 μM
[4] = test system: GLP-1 (Glucagon-Like Peptide) release; assay: GLP-1 (glucagon-like peptide) release test in mice; format: in vivo; conditions: C57BL/6J mice; for Average GLP-1 concentration: given into the colon by catheter, portal vein blood after 15 minutes, ELISA, NCG21 suspension in PEG at 100 mmol/g body weight; for increase of GLP-1 concentration in the portal blood relative to control DMSO: portal blood 15 minutes after colonic administration
Description: C57BL/6J mice (8 weeks old) were anesthetized with Nembutal (pentobarbital sodium) (60 mg/kg body weight), a catheter was inserted into the colon through the celiotomy, and the solution of the test compound was administered through the catheter (NCG21 as a suspension in PEG at 100 mmol/g body weight, at a rate of 100 μl/min). After 15 minutes, a blood sample was taken from the portal vein, centrifuged at 8000 rpm for 10 minutes, and the supernatant was stored at −80° C. GLP-1 (ng/mL) was determined using ELISA kit (Wako Pure Chemical Industries, Ltd.) within the next day. Each group consists of 12 mice, except that 11 mice were used for NCG21.

human GPR40 (hGPR40) [5] = molecular target: T1, human GPR40 (hGPR40); assay: ERK assay, screening for GPR40 ligands in cell line TXGPR40; format: cell-based; conditions: TXGPR40 cells; for ERK/GPR40 10 μM: ligand 10 μM; for ERK/GPR40 10 μM / ERK/GPR40 100 μM: class relative to LA; for ERK/GPR40 100 μM: ligand 100 μM
human GPR120 (hGPR120) [6] = molecular target: T2, human GPR120 (hGPR120); assay: ERK assay, screening for GPR120 ligands in cell line TXGPR120;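 as to ERK/GPR120 10 μM: signals normalized between DMSO and PMA controls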; format: cell-based; conditions: for ERK/GPR120 10 μM: ligand 10 μM; for ERK/GPR120 10 μM / ERK/GPR120 100 μM / ERK activation for GPR120 (in words): TXGPR120 cells; for ERK/GPR120 10 μM / ERK/GPR120 100 μM: class relative to LA; for ERK/GPR120 100 μM: ligand 100 μM; for ERK activation for GPR120 (in words): FIGS. 5-8
[7] = TXGPR40 cells, maximum fluorescence intensity vs ligand concentration, read-out: [Ca^2+]/GPR40 pEC50 (converted)
[8] = TXGPR120 cells, maximum fluorescence intensity vs ligand concentration, read-out: [Ca^2+]/GPR120 pEC50 (converted)
[9] = GPR120/Flp-in cells, maximum fluorescence intensity vs ligand concentration, read-out: [Ca^2+]/GPR120/Flp-In pEC50 (converted)

T1 sequence (O14842 whole entry): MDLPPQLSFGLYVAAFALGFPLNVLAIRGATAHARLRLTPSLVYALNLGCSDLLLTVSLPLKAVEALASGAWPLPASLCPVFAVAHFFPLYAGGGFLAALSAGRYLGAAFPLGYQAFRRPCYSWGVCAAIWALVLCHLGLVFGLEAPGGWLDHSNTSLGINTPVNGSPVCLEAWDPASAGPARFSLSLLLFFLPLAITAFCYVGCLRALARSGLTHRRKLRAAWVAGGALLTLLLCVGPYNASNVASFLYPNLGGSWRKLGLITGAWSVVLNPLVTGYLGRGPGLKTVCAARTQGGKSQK

O=C(O)CCCc1ccc(OCCN(c2ccccc2)c2ccccn2)cc1 [NCG21]
EC50 (human GPR40 (hGPR40) [1]; [7]): 18.6 µM | EC50 (human GPR120 (hGPR120) [2]; [8]): 2.88 µM | EC50 (human GPR120 (hGPR120) [3]; [9]): 1.26 µM | Average GLP-1 concentration [4]: 4.02 ng/mL | increase of GLP-1 concentration in the portal blood relative to control DMSO [4]: 2.5 times | melting point: 98 to 99 °C

O=C(O)CCCCc1ccc(OCCN(c2ccccc2)c2ccccn2)cc1 [NCG23, 5-{4-[2-(2-phenylpyridinylamino)ethoxy]phenyl}pentanoic acid]
EC50 (human GPR40 (hGPR40) [1]): 7.76 µM | EC50 (human GPR120 (hGPR120) [3]): 9.12 µM | melting point: 74 to 75 °C

CC/C=C\C/C=C\C/C=C\CCCCCCCC(=O)O [LA, cis-α-linolenic acid, reference compound]
Average GLP-1 concentration [4]: 3.87 ng/mL | increase of GLP-1 concentration in the portal blood relative to control DMSO [4]: 2.4 times

CCCN(CCOc1ccc(CCC(=O)O)cc1)c1ccccn1 [NCP03]
ERK/GPR40 10 μM (human GPR40 (hGPR40) [5]): ++ (++ denotes 50 to 100% of LA) | ERK/GPR40 100 μM (human GPR40 (hGPR40) [5]): +++ (+++ denotes a higher value than LA) | ERK/GPR120 10 μM (human GPR120 (hGPR120) [6]): + (+ denotes 0 to 100% of LA) | ERK/GPR120 100 μM (human GPR120 (hGPR120) [6]): ++ (++ denotes 50 to 100% of LA) | EC50 (human GPR40 (hGPR40) [1]; [7]): 5.25 µM | agonistic activity for GPR40 (in words) (human GPR40 (hGPR40) [1]): showed a specific reactivity | [Ca^2+]/GPR40 10 μM (ratio vs. LA) (human GPR40 (hGPR40) [1]; TXGPR40 cells): 1.25 | agonistic activity for hGPR120 (in words) (human GPR120 (hGPR120) [2]): exhibit a similar effect | [Ca^2+]/GPR120 10 μM (ratio vs. LA) (human GPR120 (hGPR120) [2]; TXGPR120 cells): 0.00 | EC50 (human GPR120 (hGPR120) [3]; [9]): 17.8 µM | [Ca^2+]/GPR120/Flp-In 10 μM (ratio vs. LA) (human GPR120 (hGPR120) [3]; GPR120/Flp-in cells): 0.57

Cc1ccnc(N(CCOc2ccc(CCCC(=O)O)cc2)c2ccccc2)c1 [NCG34]
ERK/GPR40 10 μM (human GPR40 (hGPR40) [5]): + (+ denotes 0 to 100% of LA) | ERK/GPR40 100 μM (human GPR40 (hGPR40) [5]): +++ (+++ denotes a higher value than LA) | ERK activation for GPR120 (in words) (human GPR120 (hGPR120) [6]): strongly activate ERK | ERK/GPR120 10 μM (human GPR120 (hGPR120) [6]): +++ (+++ denotes a higher value than LA) | ERK/GPR120 100 μM (human GPR120 (hGPR120) [6]): +++ (+++ denotes a higher value than LA) | EC50 (human GPR40 (hGPR40) [1]): 22.4 µM | agonistic activity for GPR40 (in words) (human GPR40 (hGPR40) [1]): showed a specific reactivity | [Ca^2+]/GPR40 10 μM (ratio vs. LA) (human GPR40 (hGPR40) [1]; TXGPR40 cells): 0.43 | EC50 (human GPR120 (hGPR120) [2]): 28.8 µM | agonistic activity for hGPR120 (in words) (human GPR120 (hGPR120) [2]): exhibit a similar effect | [Ca^2+]/GPR120 10 μM (ratio vs. LA) (human GPR120 (hGPR120) [2]; TXGPR120 cells): 0.49 | EC50 (human GPR120 (hGPR120) [3]): 6.92 µM | [Ca^2+]/GPR120/Flp-In 10 μM (ratio vs. LA) (human GPR120 (hGPR120) [3]; GPR120/Flp-in cells): 0.81

O=C(O)CCCc1ccc(OCCN(c2ccccc2)c2cccnc2)cc1 [NCG30]
ERK activation for GPR40 (in words) (human GPR40 (hGPR40) [5]; FIGS. 1-4): strongly activated ERK | ERK/GPR40 100 μM (human GPR40 (hGPR40) [5]): + (+ denotes 0 to 100% of LA) | selectivity for GPR120 in ERK assay (in words) (human GPR120 (hGPR120) [6]; GPR120 versus GPR40): selective for GRP120 | ERK activation for GPR120 (in words) (human GPR120 (hGPR120) [6]): strongly activate ERK | ERK/GPR120 10 μM (human GPR120 (hGPR120) [6]): ++ (++ denotes 50 to 100% of LA) | ERK/GPR120 100 μM (human GPR120 (hGPR120) [6]): +++ (+++ denotes a higher value than LA) | [Ca^2+]/GPR40 10 μM (ratio vs. LA) (human GPR40 (hGPR40) [1]; TXGPR40 cells): 0.01 | selectivity between GPR40 and GPR120 (in words), from Tables 3 and 4 (human GPR120 (hGPR120) [2]; GPR40 versus GPR120, Ca2+ and ERK results): acting relatively mildly for GPR40 but acting strongly for GPR120 | EC50 (human GPR120 (hGPR120) [2]; [8]): 15.5 µM | agonistic activity for hGPR120 (in words) (human GPR120 (hGPR120) [2]): exhibit a similar effect | [Ca^2+]/GPR120 10 μM (ratio vs. LA) (human GPR120 (hGPR120) [2]; TXGPR120 cells): 0.71 | EC50 (human GPR120 (hGPR120) [3]; [9]): 3.72 µM | [Ca^2+]/GPR120/Flp-In 10 μM (ratio vs. LA) (human GPR120 (hGPR120) [3]; GPR120/Flp-in cells): 0.88

Source: patent US8318781B2, “G-protein-conjugated receptor agonist” (Japan Science and Technology Agency, priority 2007, dated 2012)
